In US7683062B2, “Crystalline form” (sanofi-aventis U.S. LLC, priority 2005, dated 2010):
Each block holds one compound with its values, some of them ahead of it.

What was measured:
[1] = Preliminary absorption studies with standard formulations; type: in vivo
[2] = molecular target: peripheral-type benzodiazepine receptors (Homo sapiens, UniProt P30536); conditions: cited from earlier work
[3] = test system: animal models of rheumatoid arthritis; assay: Animal models of rheumatoid arthritis; type: in vivo; conditions: by modulating the immune response
[4] = Stability testing of polymorphic form (FTIR); type: physicochemical
Procedure: Fourier Transform IR spectra were obtained with a Nicolet 750 Magna brand system. The drug substance was ground with dry potassium bromide (KBr) at a concentration of 1 mg drug substance/200 mg KBr and compressed into a disk (200 mg) at 10,000 lbs for analysis.
Samples were analyzed at 2 months. The chamber humidity was controlled via a saturated sodium chloride aqueous solution.

Chain of peripheral-type benzodiazepine receptors (P30536 whole entry): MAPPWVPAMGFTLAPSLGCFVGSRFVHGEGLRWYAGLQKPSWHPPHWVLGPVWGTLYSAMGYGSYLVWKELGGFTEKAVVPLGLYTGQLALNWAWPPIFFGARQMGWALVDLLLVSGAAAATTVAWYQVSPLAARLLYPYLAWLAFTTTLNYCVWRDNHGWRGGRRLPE

absorption of the drug [1]: limited absorption
SMILES: CN(C)C(=O)Cc1nn(-c2ccccc2)c(=O)c2c1c1ccc(Cl)cc1n2C [Form I, 7-chloro-N,N,5-trimethyl-4-oxo-3-phenyl-3,5-dihydro-4H-pyridazino[4,5-b]indole-1-acetamide]

SMILES: CN(C)C(=O)Cc1nn(-c2ccccc2)c(=O)c2c1c1ccc(Cl)cc1n2C [7-Chloro-N,N,5-trimethyl-4-oxo-3-phenyl-3,5-dihydro-4H-pyridazino[4,5-b]indole-1-acetamide]
affinity for the peripheral-type benzodiazepine receptors [2]: high affinity
pharmacological activity in animal models of rheumatoid arthritis [3]: has shown pharmacological activity

physical stability (conversion into other form) ([4]; normal storage conditions (room temperature)): does not convert into any other form
SMILES: CN(C)C(=O)Cc1nn(-c2ccccc2)c(=O)c2c1c1ccc(Cl)cc1n2C [Form II, 7-chloro-N,N,5-trimethyl-4-oxo-3-phenyl-3,5-dihydro-4H-pyridazino[4,5-b]indole-1-acetamide]
physical stability (conversion to Form I by FTIR) ([4]; 50° C./75% relative humidity, open glass vials, two months, FIG. 9): no changes indicative of conversion to Form I
